pIC50: −log10 of the molar value. Like-named read-outs stand apart in the source and are kept apart here.
Assays:
Type in all cases: cell-based, human
MYB = experiment: HiBiT protein abundance assay, MYB HiBiT K562 cell line; conditions: 24 hours, top dose 10 μM
Outline: (§1)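 Endogenous targets in K562 knock-in lines carried a HiBiT tag and were treated for 24 h at 37 °C with 10-point 3-fold dilutions (top 10 μM final, DMSO ≤0.25%). Abundance was read as lytic Nano-Glo HiBiT luminescence. IC50 came from a four-parameter logistic fit of normalized response.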

HTT mRNA = experiment: RT-qPCR splicing assay, HTT canonical junction (CJ) and alternative junction (AJ) mRNA; conditions: Homo sapiens; for AC50: increase in HTT alternative junction (AJ) mRNA, read-out: HTT AJ AC50
Outline: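 A673 or K562 cells were treated for 24 h at 37 °C with an 11-point 3-fold compound dilution series (top final concentration 10 uM, DMSO ≤0.25%). After lysis, one-step TaqMan RT-qPCR quantified junction transcripts, normalized to PPIA for A673 or to GAPDH/GUSB for K562.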

HTT = experiment: HiBiT protein abundance assay, HTT HiBiT K562 cell line; conditions: 24 hours, top dose 10 μM
Outline: as §1

[1] = decrease in HTT canonical junction (CJ) mRNA, RT-qPCR, read-out: HTT CJ IC50
[2] = canonical junction qPCR panel, Table 5, read-out: HTT (decrease in CJ mRNA levels, IC50)
[3] = HiBiT K562 cell line, read-out: Effect on protein abundance, MYB (IC50 category)
[4] = HiBiT K562 cell line, read-out: Effect on protein abundance, HTT (IC50 category)
[5] = Table 5 panel, canonical junction qPCR, compound concentration having 50% response in CJ decrease, read-out: HTT IC50 (decrease in CJ mRNA levels)

pIC50 (MYB; HiBiT lytic detection, modified K562 cells, read-out: Effect on protein abundance, MYB (IC50)) | pIC50 (HTT mRNA; [1]) | pIC50 (HTT mRNA; [2]) | pIC50 (HTT; HiBiT lytic detection, modified K562 cells, read-out: Effect on protein abundance, HTT (IC50)) | pIC50 (MYB; [3]) | pIC50 (HTT; [4]) | pIC50 (HTT mRNA; [5]) | SMILES | AC50 (HTT mRNA; RT-qPCR)
– | 6.00 to 7.00 | 6.00 to 7.00 | – | 6.00 to 7.00 | 6.00 to 7.00 | – | Cc1cn2nc(-c3ccc4c(=O)n([C@H]5CC(C)N[C@@H](C)C5)ncc4n3)cc(C)c2n1 (stereo in doubt) [Compound 1538, 2-(2,8-dimethylimidazo[1,2-b]pyridazin-6-yl)-6-[(2S,6S)-2,6-dimethyl-4-piperidyl]pyrido[2,3-d]pyridazin-5-one] | 0.1 to 1 µM
– | 6.00 to 7.00 | – | – | 6.00 to 7.00 | 6.00 to 7.00 | 6.00 to 7.00 | Cn1cc2cc(-c3ccc4c(=O)n(C5CCNCC5)cnc4c3)cc(F)c2n1 [Compound 206] | 0.1 to 1 µM
– | 6.00 to 7.00 | – | – | < 5.00 | < 5.00 | 5.00 to 6.00 | CN1CCC(n2cnc3cc(-c4cc(F)c5nn(C)cc5c4)ccc3c2=O)CC1 [Compound 209] | 1 to 10 µM
– | 5.00 to 6.00 | – | – | 5.00 to 6.00 | 5.00 to 6.00 | 5.00 to 6.00 | Cc1cn2cc(-c3ccc4c(=O)n(C5CCNCC5)cnc4c3F)cc(F)c2n1 [Compound 210] | 1 to 10 µM
– | 5.00 to 6.00 | – | – | 6.00 to 7.00 | 6.00 to 7.00 | 5.00 to 6.00 | Cc1nc2c(F)cc(-c3ccc4c(c3)CCN(C3CCNCC3)C4=O)cc2o1 [Compound 215] | 1 to 10 µM
– | 5.00 to 6.00 | – | – | 6.00 to 7.00 | 6.00 to 7.00 | 5.00 to 6.00 | Cc1cc(-c2ccc3c(c2)CCN(C2CCNCC2)C3=O)cc2cn(C)nc12 [Compound 219, 6-(2,7-dimethylindazol-5-yl)-2-(piperidin-4-yl)-3,4-dihydroisoquinolin-1-one] | 1 to 10 µM
– | < 5.00 | – | – | < 5.00 | < 5.00 | < 5.00 | O=C1c2ccc(-c3cn[nH]c3)cc2CCN1C1CCNCC1 [Compound 220, 2-(piperidin-4-yl)-6-(1H-pyrazol-4-yl)-3,4-dihydroisoquinolin-1-one] | > 10 µM
– | < 5.00 | – | – | < 5.00 | < 5.00 | < 5.00 | Cc1cn2cc(-c3ccc4c(c3)CCN(C3CCNCC3)C4=O)ncc2n1 [Compound 224] | > 10 µM
– | < 5.00 | – | – | 5.00 to 6.00 | 5.00 to 6.00 | < 5.00 | Cn1cc2cc(-c3ccc4c(c3)CCN(C3CCNCC3)C4=O)cc(F)c2n1 [Compound 225] | > 10 µM
– | > 7.00 | – | – | > 7.00 | 6.00 to 7.00 | > 7.00 | Cc1cn2cc(-c3cc(F)c4c(=O)n(C5CCNCC5)cnc4c3)cc(F)c2n1 [Compound 230] | < 0.1 µM

The remaining lines, values behind:

SMILES | pIC50 (MYB; HiBiT lytic detection, modified K562 cells, read-out: Effect on protein abundance, MYB (IC50)) | pIC50 (HTT mRNA; [1]) | pIC50 (HTT mRNA; [2]) | pIC50 (HTT; HiBiT lytic detection, modified K562 cells, read-out: Effect on protein abundance, HTT (IC50)) | pIC50 (MYB; [3]) | pIC50 (HTT; [4]) | pIC50 (HTT mRNA; [5]) | AC50 (HTT mRNA; RT-qPCR)
Cc1cn2nc(-c3ccc4c(=O)n(C5CC(C)N[C@H](C)C5)ncc4n3)cc(C)c2n1 (stereo in doubt) [Compound 1536, 2-(2,8-dimethylimidazo[1,2-b]pyridazin-6-yl)-6-[(2S,6R)-2,6-dimethyl-4-piperidyl]pyrido[2,3-d]pyridazin-5-one] | 6.00 to 7.00 | 6.00 to 7.00 | 6.00 to 7.00 | 6.00 to 7.00 | – | – | – | 0.1 to 1 µM
Cc1cn2nc(-c3ccc4c(=O)n(C5C[C@@H](C)N[C@H](C)C5)ncc4n3)cc(C)c2n1 (stereo in doubt) [Compound 1537, 2-(2,8-dimethylimidazo[1,2-b]pyridazin-6-yl)-6-[(2R,6R)-2,6-dimethyl-4-piperidyl]pyrido[2,3-d]pyridazin-5-one] | – | 6.00 to 7.00 | 6.00 to 7.00 | – | 6.00 to 7.00 | 6.00 to 7.00 | – | 0.1 to 1 µM
Cc1cn2cc(-c3ccc4c(=O)n(C5CCNCC5)cnc4c3)cc(F)c2n1 [Compound 205] | – | 6.00 to 7.00 | – | – | 6.00 to 7.00 | 6.00 to 7.00 | 6.00 to 7.00 | 0.1 to 1 µM
Cc1cn2cc(-c3ccc4c(=O)n(C5CCN(C)CC5)cnc4c3)cc(F)c2n1 [Compound 207] | – | 5.00 to 6.00 | – | – | 5.00 to 6.00 | 5.00 to 6.00 | 5.00 to 6.00 | 1 to 10 µM
CN1CCC(n2cnc3cc(-c4ccc5nn(C)cc5c4)ccc3c2=O)CC1 [Compound 208] | – | 5.00 to 6.00 | – | – | 5.00 to 6.00 | 5.00 to 6.00 | < 5.00 | > 10 µM
Cc1cn2cc(-c3ccc4c(c3)CCN(C3CCNCC3)C4=O)cc(Cl)c2n1 [Compound 216, 6-[8-chloro-2-methylimidazo[1,2-a]pyridin-6-yl]-2-(piperidin-4-yl)-3,4-dihydroisoquinolin-1-one] | – | 5.00 to 6.00 | – | – | 6.00 to 7.00 | 6.00 to 7.00 | 5.00 to 6.00 | 1 to 10 µM
Cc1cn2cc(-c3ccc4c(c3)CCN(C3CCNCC3)C4=O)cc(C)c2n1 [Compound 217, 6-[2,8-dimethylimidazo[1,2-a]pyridin-6-yl]-2-(piperidin-4-yl)-3,4-dihydroisoquinolin-1-one] | – | 5.00 to 6.00 | – | – | 6.00 to 7.00 | 6.00 to 7.00 | 5.00 to 6.00 | 1 to 10 µM
Cc1cn2cc(-c3ccc4c(c3)CCN(C3CCNCC3)C4=O)c(C)cc2n1 [Compound 218, 6-[2,7-dimethylimidazo[1,2-a]pyridin-6-yl]-2-(piperidin-4-yl)-3,4-dihydroisoquinolin-1-one] | – | 5.00 to 6.00 | – | – | 5.00 to 6.00 | 5.00 to 6.00 | 5.00 to 6.00 | 1 to 10 µM
Cc1cn2cc(-c3ccc4c(c3)CCN(C3CCNCC3)C4=O)nc2c(C)n1 [Compound 221, 6-[6,8-dimethylimidazo[1,2-a]pyrazin-2-yl]-2-(piperidin-4-yl)-3,4-dihydroisoquinolin-1-one] | – | < 5.00 | – | – | < 5.00 | < 5.00 | < 5.00 | > 10 µM
Cc1cn2nc(-c3ccc4c(c3)CCN(C3CCNCC3)C4=O)nc2c(C)n1 [Compound 222, 6-[6,8-dimethyl-[1,2,4]triazolo[1,5-a]pyrazin-2-yl]-2-(piperidin-4-yl)-3,4-dihydroisoquinolin-1-one] | – | 5.00 to 6.00 | – | – | 5.00 to 6.00 | 5.00 to 6.00 | 5.00 to 6.00 | 1 to 10 µM
Cc1cn2nc(-c3ccc4c(c3)CCN(C3CCNCC3)C4=O)cc2c(C)n1 [Compound 223, 6-[4,6-dimethylpyrazolo[1,5-a]pyrazin-2-yl]-2-(piperidin-4-yl)-3,4-dihydroisoquinolin-1-one] | – | 5.00 to 6.00 | – | – | 5.00 to 6.00 | 5.00 to 6.00 | 5.00 to 6.00 | 1 to 10 µM
Cc1nc2c(F)cc(-c3ccc4c(c3)CCN(C3CCNCC3)C4=O)cc2s1 [Compound 226] | – | < 5.00 | – | – | 5.00 to 6.00 | 5.00 to 6.00 | < 5.00 | > 10 µM
Cc1cn2cc(-c3ccc4c(=O)n(C5CCN(C)CC5)cnc4c3F)cc(F)c2n1 [Compound 227] | – | 5.00 to 6.00 | – | – | 5.00 to 6.00 | 5.00 to 6.00 | 5.00 to 6.00 | 1 to 10 µM
Cc1cn2cc(-n3cnc4cc(N5CCNCC5)ccc4c3=O)cc(F)c2n1 [Compound 228] | – | 6.00 to 7.00 | – | – | 6.00 to 7.00 | 6.00 to 7.00 | 6.00 to 7.00 | 0.1 to 1 µM
Cc1cn2cc(-n3cnc4cc(N5CCN(C)CC5)ccc4c3=O)cc(F)c2n1 [Compound 229] | – | < 5.00 | – | – | < 5.00 | < 5.00 | < 5.00 | > 10 µM
